Laboratory results from publication PMC9221290, “Alkaloids of Dicranostigma franchetianum (Papaveraceae) and Berberine Derivatives as a New Class of Antimycobacterial Agents” (Biomolecules, 2022).
Converted amounts (≈) assume the structure as drawn. Read-outs that look alike come from different tables or passages of the source.

How the values were obtained:
[1] = test system: Mtb H37Ra ITM-M006710 (ATCC 9431); assay: Antimycobacterial microdilution broth assay (resazurin), Mtb H37Ra; assay type: cell-based, Mycobacterium tuberculosis; settings: for MIC: Mycobacterium tuberculosis, read-out: MIC Mtb H37Ra
[2] = test system: Mycolicibacterium aurum DSM 43999 (ATCC 23366); assay: Antimycobacterial microdilution broth assay (resazurin), M. aurum; assay type: cell-based; settings: 72 h; for MIC: Mycolicibacterium aurum, read-out: MIC M. aurum, microdilution broth, resazurin, 72 h; for MIC M. aurum: microdilution broth, resazurin
[3] = test system: Mycobacterium avium DSM 44156 (ATCC 25291); assay: Antimycobacterial microdilution broth assay (resazurin), M. avium; assay type: cell-based; settings: 96 h; for MIC: Mycobacterium avium, read-out: MIC M. avium, microdilution broth, resazurin, 96 h
[4] = test system: Mycobacterium kansasii DSM 44162 (ATCC 12478); assay: Antimycobacterial microdilution broth assay (resazurin), M. kansasii; assay type: cell-based; settings: 96 h; for MIC: Mycobacterium kansasii, read-out: MIC M. kansasii, microdilution broth, resazurin, 96 h
[5] = test system: Mycolicibacterium smegmatis DSM 43465 (ATCC 607); assay: Antimycobacterial microdilution broth assay (resazurin), M. smegmatis; assay type: cell-based; settings: 48 h; for MIC: Mycolicibacterium smegmatis, read-out: MIC M. smegmatis, microdilution broth, resazurin, 48 h
HepG2 cells [6] = test system: HepG2 cells
HepG2 cells [7] = assay: cells; settings: Homo sapiens, HepG2, 24 h
in vitro = settings: human, % of cell viability compared to control; for viability at 1 µM: HepG2, 1 µM; for viability at 5 µM: HepG2, 5 µM; for viability at 10 µM: HepG2, 10 µM; for viability at 25 µM: HepG2, 25 µM; for viability at 50 µM: HepG2, 50 µM; for viability at 75 µM: HepG2, 75 µM; for viability at 100 µM: HepG2, 100 µM
[8] = 120 h, microdilution broth, resazurin, 120 h
[9] = calculated from MIC (µg/mL) and MW
[10] = read-out: HepG2 IC50, 1. measurement, MTT, 24 h, single measurement 1
[11] = read-out: HepG2 IC50, 2. measurement, MTT, 24 h, single measurement 2
[12] = read-out: HepG2 IC50, 3. measurement, MTT, 24 h, single measurement 3
[13] = read-out: HepG2 IC50, MTT, 24 h incubation

Molecule `COc1ccc2cc3[n+](cc2c1OCc1cccc(Cl)c1)CCc1cc2c(cc1-3)OCO2` [16h, 9-O-(3-chlorbenzyl)berberine chloride] has an MIC [1, 8] of 3.12 µg/mL, an MIC [1, 9] of 5.93 µM and an MIC [2] of 1.56 µg/mL. It also gave an MIC [3] of 1.56 µg/mL, an MIC [4] of 3.12 µg/mL and an MIC [5] of 0.78 µg/mL. The “SI (selectivity index)” value (HepG2 cells [6]) was 1.59, the IC50 (HepG2 cells [7]; [10]) was 8.53 µM and the IC50 (HepG2 cells [7]; [11]) was 11.9 µM. For the same molecule, the IC50 (HepG2 cells [7]; [12]) was 7.91 µM, the IC50 (HepG2 cells [7]; [13]) was 9.44 ± 2.13 µM and the viability at 1 µM (in vitro; 1. measurement) was 65.4%. The viability at 5 µM (in vitro; 1. measurement) was 66.5%, the viability at 10 µM (in vitro; 1. measurement) was 51.7% and the viability at 25 µM (in vitro; 1. measurement) was 44.2%. The viability at 50 µM (in vitro; 1. measurement) was 36.5%, the viability at 75 µM (in vitro; 1. measurement) was 23.8% and the viability at 100 µM (in vitro; 1. measurement) was 15.7%. The viability at 1 µM (in vitro; 2. measurement) was 94.6%, the viability at 5 µM (in vitro; 2. measurement) was 67.4% and the viability at 10 µM (in vitro; 2. measurement) was 54.2%. It also gave a viability at 25 µM (in vitro; 2. measurement) of 44.6%, a viability at 50 µM (in vitro; 2. measurement) of 12.8% and a viability at 75 µM (in vitro; 2. measurement) of 1.14%. For the same molecule, the viability at 100 µM (in vitro; 2. measurement) was 0.68%, the viability at 1 µM (in vitro; 3. measurement) was 87.2% and the viability at 5 µM (in vitro; 3. measurement) was 54.4%. It also gave a viability at 10 µM (in vitro; 3. measurement) of 47.8%, a viability at 25 µM (in vitro; 3. measurement) of 36% and a viability at 50 µM (in vitro; 3. measurement) of 15.6%. It also gave a viability at 75 µM (in vitro; 3. measurement) of 2.92% and a viability at 100 µM (in vitro; 3. measurement) of 0.98%.

`COc1cc2c(cc1O)[C@@H]1Cc3ccc(OC)c(O)c3CN1CC2` [compound 15, scoulerine] showed an MIC [1, 8] of 250 µg/mL, an MIC [1, 9] of 764 µM and an MIC [2] of 125 µg/mL (≈ 382 µM). It also gave an MIC [3] of 250 µg/mL (≈ 764 µM), an MIC [4] of 15.6 µg/mL (≈ 47.7 µM) and an MIC [5] of 125 µg/mL (≈ 382 µM).

`COc1ccc2cc3[n+](cc2c1OCc1ccccc1C)CCc1cc2c(cc1-3)OCO2` [16b, 9-O-(2-methylbenzyl)berberine chloride] gave an MIC [1, 8] of 7.81 µg/mL, an MIC [1, 9] of 16.9 µM and an MIC [2] of 7.81 µg/mL. It also gave an MIC [3] of 3.91 µg/mL, an MIC [4] of 3.91 µg/mL and an MIC [5] of 1.95 µg/mL. For the same molecule, the “SI (selectivity index)” value (HepG2 cells [6]) was 2.32, the IC50 (HepG2 cells [7]; [10]) was 36 µM and the IC50 (HepG2 cells [7]; [11]) was 38.6 µM. It also gave an IC50 (HepG2 cells [7]; [12]) of 43.2 µM, an IC50 (HepG2 cells [7]; [13]) of 39.3 ± 3.62 µM and a viability at 1 µM (in vitro; 1. measurement) of 96%. The viability at 5 µM (in vitro; 1. measurement) was 83.6%, the viability at 10 µM (in vitro; 1. measurement) was 73% and the viability at 25 µM (in vitro; 1. measurement) was 48.6%. The viability at 50 µM (in vitro; 1. measurement) was 41.5%, the viability at 75 µM (in vitro; 1. measurement) was 39.3% and the viability at 100 µM (in vitro; 1. measurement) was 37.5%. For the same molecule, the viability at 1 µM (in vitro; 2. measurement) was 97.8%, the viability at 5 µM (in vitro; 2. measurement) was 87.1% and the viability at 10 µM (in vitro; 2. measurement) was 76.6%. For the same molecule, the viability at 25 µM (in vitro; 2. measurement) was 51.6%, the viability at 50 µM (in vitro; 2. measurement) was 42.5% and the viability at 75 µM (in vitro; 2. measurement) was 41.1%. For the same molecule, the viability at 100 µM (in vitro; 2. measurement) was 33.8%, the viability at 0.1 µM (in vitro; 3. measurement, HepG2, 0.1 µM) was 99.5% and the viability at 1 µM (in vitro; 3. measurement) was 99.4%. The viability at 5 µM (in vitro; 3. measurement) was 88.8%, the viability at 10 µM (in vitro; 3. measurement) was 76.5% and the viability at 25 µM (in vitro; 3. measurement) was 51.6%. It also gave a viability at 50 µM (in vitro; 3. measurement) of 44.9%, a viability at 75 µM (in vitro; 3. measurement) of 42.6% and a viability at 100 µM (in vitro; 3. measurement) of 38.5%.

In the case of `COc1cc2c3c(c1O)-c1c(ccc(OC)c1OC)C[C@@H]3N(C)CC2` [compound 12, corydine], the MIC [1, 8] is reported as ≥ 500 µg/mL, the MIC [1, 9] is reported as ≥ 1470 µM and the MIC [2] is reported as 250 µg/mL (≈ 732 µM). The MIC [3] was 62.5 µg/mL (≈ 183 µM), the MIC [4] was 250 µg/mL (≈ 732 µM) and the MIC [5] was ≥ 500 µg/mL.

In the case of `c1cc2c(c3c1C[C@H]1c4cc5c(cc4CCN1C3)OCO5)OCO2` [compound 4, stylopine], the MIC [1, 8] is reported as ≥ 125 µg/mL, the MIC [1, 9] is reported as ≥ 387 µM and the MIC [2] is reported as ≥ 125 µg/mL. The MIC [3] was ≥ 125 µg/mL, the MIC [4] was ≥ 125 µg/mL and the MIC [5] was ≥ 125 µg/mL.

For `CN1Cc2c(ccc3c2OCO3)-c2ccc3cc4c(cc3c21)OCO4` [compound 1, dihydrosanguinarine], the MIC [1, 8] was ≥ 500 µg/mL, the MIC [1, 9] was ≥ 1500 µM and the MIC [2] was ≥ 500 µg/mL. For the same molecule, the MIC [3] was ≥ 500 µg/mL, the MIC [4] was 125 µg/mL (≈ 375 µM) and the MIC [5] was ≥ 500 µg/mL.

Work on `COc1ccc2c(c1OC)CN(C)c1c-2ccc2cc3c(cc12)OCO3` [compound 2, dihydrochelerythrine] yielded an MIC [1, 8] of 250 µg/mL, an MIC [1, 9] of 716 µM and an MIC [2] of 250 µg/mL (≈ 716 µM). For the same molecule, the MIC [3] was 62.5 µg/mL (≈ 179 µM), the MIC [4] was 250 µg/mL (≈ 716 µM) and the MIC [5] was ≥ 500 µg/mL.

In the case of `NNC(=O)c1ccncc1` [isoniazid, reference compound], the MIC [1, 8] is reported as 0.125 to 0.25 µg/mL, the MIC [1, 9] is reported as 1.82 µM and the “MIC Mtb H37Ra” value ([1]; microdilution broth, resazurin, 120 h) is reported as 0.25 µg/mL (≈ 1.82 µM). The “MIC M. aurum” value [2] was 3.91 µg/mL (≈ 28.5 µM), the “MIC M. aurum” value ([2]; listed as INH) was 1.95 to 3.91 µg/mL and the MIC [3] was 500 to 1000 µg/mL (≈ 3650 to 7290 µM). For the same molecule, the “MIC M. avium” value ([3]; microdilution broth, resazurin) was 500 µg/mL (≈ 3650 µM), the MIC [4] was 3.12 to 6.25 µg/mL (≈ 22.8 to 45.6 µM) and the “MIC M. kansasii” value ([4]; microdilution broth, resazurin) was 6.25 µg/mL (≈ 45.6 µM). For the same molecule, the MIC [5] was 15.6 to 31.2 µg/mL (≈ 114 to 228 µM) and the “MIC M. smegmatis” value ([5]; microdilution broth, resazurin) was 31.25 µg/mL (≈ 228 µM).
